# Measurements reported in US20120308623A1, “COMPOSITION COMPRISING NANOPARTICLES OF TI02” (priority 2009, published 2012).
# What was measured:
# [1] = pH of the suspension containing MB; type: physicochemical; details: Example 1: H2O2 at 15 vol. %, without or with TiO2
# Procedure: (§1) The aim was to measure if methylene blue could be degradated by H2O2 (PERDROGEN® 30% H2O2 (w/w), Sigma Aldrich AS, Oslo, Norway) at 15% only, without TiO2 or UV irradiation. Then, an increasing concentration of TiO2 (Aeroxide P25, Evonik AG, Essen, Germany) was added to the solution until a maximum concentration of 8 g/L. The measurements were taken every 3 minutes for one hour. The pH of the suspension containing MB was also registered. The suspension was stirred prior to each measurement to prevent the deposition of the TiO2 particles.
# The aim was to measure if methylene blue could be degradated by TiO2 nanoparticles only (Aeroxide P25, Evonik AG, Essen, Germany), without H2O2 or UV irradiation. Then, an increasing concentration of H2O2 (PERDROGEN® 30% H2O2 (w/w), Sigma Aldrich AS, Oslo, Norway) was added to the suspension until a maximum concentration of 15 vol. %. The procedure of the experiment was the same as explained in example 1.
# [2] = Methylene blue degradation measured by UV-vis spectrophotometry; details: Example 1: H2O2 at 15 vol. %, TiO2 at various concentrations, no UV irradiation, measured every 3 minutes for one hour
# Source text: Methylene blue (MB) is a heterocyclic aromatic chemical compound with molecular formula: C16H18N3SCl (AldrichSigmaAldrich, Oslo, Norway). It has many uses in a range of different fields, such as biology and chemistry. […] A degradadation of MB therefore can be used as a model for the in vivo degradation of organic material, such as bacteria, or dead, damaged, and/or infected tissue. At room temperature it appears as a solid, odourless, dark green powder that yields a blue solution when dissolved in water. When degradated in solution, methylene blue becomes colourless. When methylene blue is analysed by UV-vis spectrophotometry (Lambda 25, Perkin Elmer, USA), it absorbs light at […]. This machine was used to quantify the degradation of MB.
# as §1, with “particles. […]” for “particles.”
smiles,measurement,setting,value
"OO [H2O2 at 15 vol. %, H2O2]",pH of the suspension containing MB,[1],3.7
same,Methylene blue degradation,[2],Almost no degradation
